Measurements taken from the OligoGym collection.
HELM strings list units from the 5' end as sugar, base in round brackets, then linkage (d deoxyribose, r ribose, m 2'-O-methyl, p phosphodiester). Strings are as the collection lists them; they lack the last nucleoside at the 3' end of the tested compound. [moe] = 2'-O-(2-methoxyethyl) (MOE); [sp] = phosphorothioate linkage; [m5C] = 5-methylcytosine

What follows are substances tested against HTT (assay: mouse, dose not given). Settings: ASO.

First: RNA1{[moe](A)[sp].[moe](A)p.[moe]([m5C])p.[moe](A)p.[moe](A)[sp].d(A)[sp].d(T)[sp].d(A)[sp].d(T)[sp].d(T)[sp].d(T)[sp].d(T)[sp].d([m5C])[sp].d(A)[sp].d(A)[sp].[moe]([m5C])p.[moe](T)p.[moe](G)[sp].[moe](G)}$$$$ (last 3' nucleoside missing)
Second: RNA1{[moe](A)[sp].[moe](T)p.[moe]([m5C])p.[moe]([m5C])p.[moe](A)[sp].d(G)[sp].d(A)[sp].d(T)[sp].d(T)[sp].d(A)[sp].d(T)[sp].d(A)[sp].d([m5C])[sp].d(A)[sp].d(T)[sp].[moe]([m5C])p.[moe](T)p.[moe]([m5C])[sp].[moe]([m5C])}$$$$ (last 3' nucleoside missing)
The 3 h FOB score of the first is higher: 4.5 score 0-7 for the first, 0 score 0-7 for the second.

First: RNA1{[moe](A)[sp].[moe]([m5C])p.[moe](A)p.[moe](G)p.[moe]([m5C])[sp].d(T)[sp].d(T)[sp].d(T)[sp].d(T)[sp].d(A)[sp].d(T)[sp].d(T)[sp].d(T)[sp].d([m5C])[sp].d([m5C])[sp].[moe](A)p.[moe](T)p.[moe](A)[sp].[moe]([m5C])}$$$$ (last 3' nucleoside missing)
Second: RNA1{[moe](A)[sp].[moe]([m5C])p.[moe](A)p.[moe](G)p.[moe]([m5C])p.[moe](T)p.d(T)[sp].d(T)[sp].d(T)[sp].d(A)[sp].d(T)[sp].d(T)[sp].d(T)[sp].d([m5C])[sp].d([m5C])[sp].d(A)[sp].[moe](T)p.[moe](A)[sp].[moe]([m5C])}$$$$ (last 3' nucleoside missing)
The 3 h FOB score of the first is higher: 1 score 0-7 for the first, 0 score 0-7 for the second.

Going from “RNA1{[moe](A)[sp].[moe]([m5C])p.[moe](T)p.[moe]([m5C])p.[moe](A)[sp].d(T)[sp].d(T)[sp].d(T)[sp].d([m5C])[sp].d([m5C])[sp].d(A)[sp].d([m5C])[sp].d([m5C])[sp].d(T)[sp].d(T)[sp].[moe]([m5C])p.[moe](A)p.[moe](G)[sp].[moe]([m5C])}$$$$ (last 3' nucleoside missing)” to “RNA1{[moe](G)[sp].[moe](G)p.[moe](T)p.[moe](T)p.[moe](A)[sp].d(G)[sp].d(T)[sp].d(T)[sp].d(T)[sp].d(T)[sp].d([m5C])[sp].d([m5C])[sp].d(T)[sp].[moe](T)p.[moe](T)p.[moe](T)[sp].[moe](A)}$$$$ (last 3' nucleoside missing)”, the 3 h FOB score rises from 0 score 0-7 to 1 score 0-7.

First: RNA1{[moe](G)[sp].[moe](G)p.[moe](T)p.[moe](T)p.[moe](A)[sp].d(G)[sp].d(T)[sp].d(T)[sp].d(T)[sp].d(T)[sp].d([m5C])[sp].d([m5C])[sp].d(T)[sp].d(T)[sp].d(T)[sp].[moe](T)p.[moe](A)p.[moe](T)[sp].[moe](A)}$$$$ (last 3' nucleoside missing)
Second: RNA1{[moe](G)[sp].[moe](G)p.[moe](T)p.[moe]([m5C])p.[moe](A)[sp].d([m5C])[sp].d(A)[sp].d(G)[sp].d([m5C])[sp].d(T)[sp].d(T)[sp].d(T)[sp].d(T)[sp].d(A)[sp].d(T)[sp].[moe](T)p.[moe](T)p.[moe]([m5C])[sp].[moe]([m5C])}$$$$ (last 3' nucleoside missing)
The 3 h FOB score of the first is higher: 1 score 0-7 for the first, 0 score 0-7 for the second.

Going from “RNA1{[moe](G)[sp].[moe](T)p.[moe](G)p.[moe]([m5C])p.[moe](A)[sp].d(T)[sp].d(T)[sp].d(A)[sp].d([m5C])[sp].d(T)[sp].d(T)[sp].d(T)[sp].d(T)[sp].d(T)[sp].d(A)[sp].[moe]([m5C])p.[moe](A)p.[moe](A)[sp].[moe](T)}$$$$ (last 3' nucleoside missing)” to “RNA1{[moe](G)[sp].[moe](T)p.[moe](G)p.[moe]([m5C])p.[moe](A)p.[moe](T)p.d(T)[sp].d(A)[sp].d([m5C])[sp].d(T)[sp].d(T)[sp].d(T)[sp].d(T)[sp].d(T)[sp].d(A)[sp].d([m5C])[sp].[moe](A)p.[moe](A)[sp].[moe](T)}$$$$ (last 3' nucleoside missing)”, the 3 h FOB score rises from 1.25 score 0-7 to 3 score 0-7.

Going from “RNA1{[moe](G)[sp].[moe](T)p.[moe]([m5C])[sp].[moe](A)[sp].[moe]([m5C])[sp].d(A)[sp].d(G)[sp].d([m5C])[sp].d(T)[sp].d(T)[sp].d(T)[sp].d(T)[sp].d(A)[sp].d(T)[sp].d(T)[sp].[moe](T)[sp].[moe]([m5C])p.[moe]([m5C])[sp].[moe](A)}$$$$ (last 3' nucleoside missing)” to “RNA1{[moe](G)[sp].[moe](T)p.[moe]([m5C])p.[moe](A)p.[moe]([m5C])[sp].d(A)[sp].d(G)[sp].d([m5C])[sp].d(T)[sp].d(T)[sp].d(T)[sp].d(T)[sp].d(A)[sp].d(T)[sp].d(T)[sp].[moe](T)p.[moe]([m5C])p.[moe]([m5C])[sp].[moe](A)}$$$$ (last 3' nucleoside missing)”, the 3 h FOB score falls from 1.25 score 0-7 to 1 score 0-7.

First: RNA1{[moe](G)[sp].[moe]([m5C])p.[moe](A)[sp].[moe](T)[sp].[moe](T)[sp].d(A)[sp].d([m5C])[sp].d(T)[sp].d(T)[sp].d(T)[sp].d(T)[sp].d(T)[sp].d(A)[sp].d([m5C])[sp].d(A)[sp].[moe](A)[sp].[moe](T)p.[moe](G)[sp].[moe](G)}$$$$ (last 3' nucleoside missing)
Second: RNA1{[moe](G)[sp].[moe]([m5C])p.[moe](A)p.[moe](T)p.[moe](T)[sp].d(A)[sp].d([m5C])[sp].d(T)[sp].d(T)[sp].d(T)[sp].d(T)[sp].d(T)[sp].d(A)[sp].d([m5C])[sp].d(A)[sp].[moe](A)p.[moe](T)p.[moe](G)[sp].[moe](G)}$$$$ (last 3' nucleoside missing)
The 3 h FOB score of the first is higher: 5.25 score 0-7 for the first, 1 score 0-7 for the second.

Going from “RNA1{[moe](G)[sp].[moe]([m5C])p.[moe](A)p.[moe](T)p.[moe]([m5C])[sp].d(T)[sp].d(T)[sp].d(G)[sp].d(T)[sp].d(T)[sp].d(T)[sp].d(T)[sp].d(A)[sp].d([m5C])[sp].d([m5C])[sp].[moe](A)p.[moe]([m5C])p.[moe]([m5C])[sp].[moe]([m5C])}$$$$ (last 3' nucleoside missing)” to “RNA1{[moe](G)[sp].[moe]([m5C])p.[moe](T)p.[moe](T)p.[moe](T)[sp].d(G)[sp].d(A)[sp].d(T)[sp].d(T)[sp].d(T)[sp].d(T)[sp].d(T)[sp].d(A)[sp].d([m5C])[sp].d([m5C])[sp].[moe](A)p.[moe](G)p.[moe](T)[sp].[moe](T)}$$$$ (last 3' nucleoside missing)”, the 3 h FOB score falls from 1.5 score 0-7 to 1 score 0-7.

Going from “RNA1{[moe](G)[sp].[moe]([m5C])p.[moe](T)p.[moe](T)p.[moe](T)[sp].d(T)[sp].d(G)[sp].d(A)[sp].d(A)[sp].d(A)[sp].d(T)[sp].d(T)[sp].d([m5C])[sp].d(T)[sp].d([m5C])[sp].[moe]([m5C])p.[moe](A)p.[moe](T)[sp].[moe]([m5C])}$$$$ (last 3' nucleoside missing)” to “RNA1{[moe](G)[sp].[moe]([m5C])p.[moe](T)p.[moe](T)p.[moe](T)p.[moe](G)p.d(A)[sp].d(T)[sp].d(T)[sp].d(T)[sp].d(T)[sp].d(T)[sp].d(A)[sp].d([m5C])[sp].d([m5C])[sp].d(A)[sp].[moe](G)p.[moe](T)[sp].[moe](T)}$$$$ (last 3' nucleoside missing)”, the 3 h FOB score falls from 6.75 score 0-7 to 0.5 score 0-7.
